Reference: ChEMBL document CHEMBL3988442, “University of Dundee, Small-Polar-MMV Screening Library” (2021)
“And” between values parts separate entries of the source, which are not always exact repeats. Identical values can stand only once.

Assays:
Lysine--tRNA ligase = Lysine--tRNA ligase (Plasmodium falciparum (isolate 3D7), UniProt Q8IDJ8); experiment: Pf-KRS-1 (Lysyl-RNA Synthetase-1, KRS-1, cytosolic KRS) from Plasmodium falciparum. Inhibitor assay, 384 well plate, luminescence read.; assay type: functional
Sequence of Lysine--tRNA ligase (Q8IDJ8 whole entry): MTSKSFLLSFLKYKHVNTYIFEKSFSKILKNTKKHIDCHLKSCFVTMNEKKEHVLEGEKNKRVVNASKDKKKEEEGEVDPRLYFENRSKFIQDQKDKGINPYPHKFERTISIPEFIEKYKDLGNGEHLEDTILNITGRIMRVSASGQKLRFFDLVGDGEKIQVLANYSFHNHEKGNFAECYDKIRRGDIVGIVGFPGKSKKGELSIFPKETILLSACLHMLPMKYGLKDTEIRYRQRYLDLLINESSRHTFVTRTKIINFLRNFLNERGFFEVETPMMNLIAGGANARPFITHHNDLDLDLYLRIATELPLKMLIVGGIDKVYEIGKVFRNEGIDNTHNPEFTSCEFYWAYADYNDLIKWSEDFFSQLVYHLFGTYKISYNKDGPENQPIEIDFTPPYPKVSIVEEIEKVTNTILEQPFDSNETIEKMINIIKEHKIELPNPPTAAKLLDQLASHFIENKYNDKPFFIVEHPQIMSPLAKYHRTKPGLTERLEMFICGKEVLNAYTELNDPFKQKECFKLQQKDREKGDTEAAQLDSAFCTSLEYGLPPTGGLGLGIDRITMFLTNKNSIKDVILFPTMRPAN

[1] = target: T1, Ubiquitin-activating enzyme e1, putative (Leishmania donovani (strain BPK282A1), UniProt E9BSI1); experiment: Leishmania donovani Ubiquitin Activating Enzyme (LdE1); assay type: functional
T1 sequence (E9BSI1 whole entry): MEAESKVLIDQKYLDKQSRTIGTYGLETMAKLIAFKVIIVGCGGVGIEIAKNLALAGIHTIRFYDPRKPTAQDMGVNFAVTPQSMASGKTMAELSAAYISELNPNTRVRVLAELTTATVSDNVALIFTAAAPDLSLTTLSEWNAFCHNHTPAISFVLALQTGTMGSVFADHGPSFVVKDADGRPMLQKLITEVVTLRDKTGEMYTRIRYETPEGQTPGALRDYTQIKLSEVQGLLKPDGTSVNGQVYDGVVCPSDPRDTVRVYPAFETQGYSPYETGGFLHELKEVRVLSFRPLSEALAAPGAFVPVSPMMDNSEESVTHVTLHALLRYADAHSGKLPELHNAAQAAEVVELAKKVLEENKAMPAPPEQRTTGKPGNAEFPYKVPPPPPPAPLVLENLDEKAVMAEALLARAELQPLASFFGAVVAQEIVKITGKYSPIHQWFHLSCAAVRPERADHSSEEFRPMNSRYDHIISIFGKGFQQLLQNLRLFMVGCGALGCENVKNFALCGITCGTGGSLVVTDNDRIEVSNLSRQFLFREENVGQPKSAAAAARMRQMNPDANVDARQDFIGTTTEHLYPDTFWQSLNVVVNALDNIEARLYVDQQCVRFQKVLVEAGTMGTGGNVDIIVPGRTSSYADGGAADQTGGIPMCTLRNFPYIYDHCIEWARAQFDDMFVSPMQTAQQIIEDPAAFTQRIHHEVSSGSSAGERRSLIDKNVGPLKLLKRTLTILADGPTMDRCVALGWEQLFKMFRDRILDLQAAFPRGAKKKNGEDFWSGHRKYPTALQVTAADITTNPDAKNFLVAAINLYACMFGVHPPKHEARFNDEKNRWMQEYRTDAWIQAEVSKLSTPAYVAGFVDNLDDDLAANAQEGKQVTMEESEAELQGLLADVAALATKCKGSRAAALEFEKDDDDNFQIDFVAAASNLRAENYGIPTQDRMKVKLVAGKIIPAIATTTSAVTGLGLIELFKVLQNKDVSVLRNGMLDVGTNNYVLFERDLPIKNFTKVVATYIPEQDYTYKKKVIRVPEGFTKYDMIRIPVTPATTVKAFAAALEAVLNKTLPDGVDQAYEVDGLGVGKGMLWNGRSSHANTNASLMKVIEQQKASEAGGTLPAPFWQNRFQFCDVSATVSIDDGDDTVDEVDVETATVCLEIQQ

Histidine--tRNA ligase [2] = target: T2, Histidine--tRNA ligase (Trypanosoma cruzi (strain CL Brener), UniProt Q4DA54); experiment: Trypanosoma cruzi histidyl tRNA synthetase (Tc-HisRS); assay type: functional
T2 sequence (Q4DA54 whole entry): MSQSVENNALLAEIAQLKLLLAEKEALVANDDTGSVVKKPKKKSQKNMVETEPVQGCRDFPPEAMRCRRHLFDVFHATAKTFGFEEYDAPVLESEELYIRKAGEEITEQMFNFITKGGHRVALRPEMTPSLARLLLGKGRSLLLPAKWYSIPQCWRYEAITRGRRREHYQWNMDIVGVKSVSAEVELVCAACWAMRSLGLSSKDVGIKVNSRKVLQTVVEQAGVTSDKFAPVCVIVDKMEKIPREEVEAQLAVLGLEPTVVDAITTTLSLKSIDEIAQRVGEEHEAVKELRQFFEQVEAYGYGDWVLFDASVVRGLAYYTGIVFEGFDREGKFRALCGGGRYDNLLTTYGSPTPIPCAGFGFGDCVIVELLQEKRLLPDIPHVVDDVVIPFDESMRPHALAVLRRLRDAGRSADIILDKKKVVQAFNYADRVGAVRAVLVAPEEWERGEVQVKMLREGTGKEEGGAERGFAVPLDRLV

Histidine--tRNA ligase [3] = target: T3, Histidine--tRNA ligase (Leishmania infantum, UniProt A4I591); experiment: Leishmania infantum Histidine tRNA synthetase (LdHisRS); assay type: functional
T3 sequence (A4I591 whole entry): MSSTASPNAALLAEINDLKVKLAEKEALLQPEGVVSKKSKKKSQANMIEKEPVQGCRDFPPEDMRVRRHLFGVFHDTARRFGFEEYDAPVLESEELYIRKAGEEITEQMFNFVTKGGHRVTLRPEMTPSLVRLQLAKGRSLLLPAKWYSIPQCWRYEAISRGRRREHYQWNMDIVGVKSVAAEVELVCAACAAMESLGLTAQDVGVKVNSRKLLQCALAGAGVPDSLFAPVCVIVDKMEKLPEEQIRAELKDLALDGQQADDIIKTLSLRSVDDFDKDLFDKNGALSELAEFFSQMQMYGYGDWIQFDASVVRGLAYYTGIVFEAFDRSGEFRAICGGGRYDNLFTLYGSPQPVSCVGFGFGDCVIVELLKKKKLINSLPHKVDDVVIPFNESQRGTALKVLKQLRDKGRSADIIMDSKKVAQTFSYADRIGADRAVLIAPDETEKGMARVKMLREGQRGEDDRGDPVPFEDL

Trypanosoma brucei = experiment: Trypanosoma brucei 72 hour study; assay type: functional, organism-based; details: for IC50: Trypanosoma brucei, 72 h
Leishmania donovani = experiment: Leishmania intramacrophage assay; assay type: functional, organism-based; details: for IC50: Leishmania donovani
[4] = system: Mycobacterium tuberculosis; experiment: Cornell M. t heat shock assay; assay type: functional, organism-based; details: Mycobacterium tuberculosis
Plasmodium falciparum = experiment: Calibr Malaria Delayed Death Assay SOP; assay type: functional, organism-based; details: for IC50: Plasmodium falciparum
[5] = microbe, parasite or virus in culture; details: Mycobacterium tuberculosis, 72 h, read-out: pIC50 (converted)
[6] = microbe, parasite or virus in culture; details: Mycobacterium tuberculosis, 96 h, read-out: pIC50 (converted)
[7] = target: T4, Coenzyme A biosynthesis bifunctional protein CoaBC (Mycobacterium tuberculosis (strain ATCC 25618 / H37Rv), UniProt P9WNZ1); experiment: Biomol Green assay for MtCoaBC inhibitor, OD650 read; assay type: functional
T4 sequence (P9WNZ1 whole entry): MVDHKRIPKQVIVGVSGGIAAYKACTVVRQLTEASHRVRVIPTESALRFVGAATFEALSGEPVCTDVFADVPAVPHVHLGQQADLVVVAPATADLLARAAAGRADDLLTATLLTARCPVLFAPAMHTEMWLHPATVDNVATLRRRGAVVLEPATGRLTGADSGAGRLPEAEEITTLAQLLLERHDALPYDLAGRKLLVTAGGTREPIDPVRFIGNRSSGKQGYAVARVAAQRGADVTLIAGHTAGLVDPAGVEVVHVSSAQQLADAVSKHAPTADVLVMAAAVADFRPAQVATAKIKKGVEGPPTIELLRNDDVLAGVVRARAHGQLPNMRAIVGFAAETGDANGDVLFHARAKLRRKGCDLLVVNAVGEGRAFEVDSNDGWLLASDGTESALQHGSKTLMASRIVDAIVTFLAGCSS

[8] = target: Polyketide synthase Pks13 (Mycobacterium tuberculosis (strain ATCC 25618 / H37Rv), UniProt I6X8D2); experiment: Mycobacterium tuberculosis Polyketide synthase 13 Thioesterase (PKS13); assay type: functional
Sequence of Polyketide synthase Pks13 (I6X8D2 whole entry): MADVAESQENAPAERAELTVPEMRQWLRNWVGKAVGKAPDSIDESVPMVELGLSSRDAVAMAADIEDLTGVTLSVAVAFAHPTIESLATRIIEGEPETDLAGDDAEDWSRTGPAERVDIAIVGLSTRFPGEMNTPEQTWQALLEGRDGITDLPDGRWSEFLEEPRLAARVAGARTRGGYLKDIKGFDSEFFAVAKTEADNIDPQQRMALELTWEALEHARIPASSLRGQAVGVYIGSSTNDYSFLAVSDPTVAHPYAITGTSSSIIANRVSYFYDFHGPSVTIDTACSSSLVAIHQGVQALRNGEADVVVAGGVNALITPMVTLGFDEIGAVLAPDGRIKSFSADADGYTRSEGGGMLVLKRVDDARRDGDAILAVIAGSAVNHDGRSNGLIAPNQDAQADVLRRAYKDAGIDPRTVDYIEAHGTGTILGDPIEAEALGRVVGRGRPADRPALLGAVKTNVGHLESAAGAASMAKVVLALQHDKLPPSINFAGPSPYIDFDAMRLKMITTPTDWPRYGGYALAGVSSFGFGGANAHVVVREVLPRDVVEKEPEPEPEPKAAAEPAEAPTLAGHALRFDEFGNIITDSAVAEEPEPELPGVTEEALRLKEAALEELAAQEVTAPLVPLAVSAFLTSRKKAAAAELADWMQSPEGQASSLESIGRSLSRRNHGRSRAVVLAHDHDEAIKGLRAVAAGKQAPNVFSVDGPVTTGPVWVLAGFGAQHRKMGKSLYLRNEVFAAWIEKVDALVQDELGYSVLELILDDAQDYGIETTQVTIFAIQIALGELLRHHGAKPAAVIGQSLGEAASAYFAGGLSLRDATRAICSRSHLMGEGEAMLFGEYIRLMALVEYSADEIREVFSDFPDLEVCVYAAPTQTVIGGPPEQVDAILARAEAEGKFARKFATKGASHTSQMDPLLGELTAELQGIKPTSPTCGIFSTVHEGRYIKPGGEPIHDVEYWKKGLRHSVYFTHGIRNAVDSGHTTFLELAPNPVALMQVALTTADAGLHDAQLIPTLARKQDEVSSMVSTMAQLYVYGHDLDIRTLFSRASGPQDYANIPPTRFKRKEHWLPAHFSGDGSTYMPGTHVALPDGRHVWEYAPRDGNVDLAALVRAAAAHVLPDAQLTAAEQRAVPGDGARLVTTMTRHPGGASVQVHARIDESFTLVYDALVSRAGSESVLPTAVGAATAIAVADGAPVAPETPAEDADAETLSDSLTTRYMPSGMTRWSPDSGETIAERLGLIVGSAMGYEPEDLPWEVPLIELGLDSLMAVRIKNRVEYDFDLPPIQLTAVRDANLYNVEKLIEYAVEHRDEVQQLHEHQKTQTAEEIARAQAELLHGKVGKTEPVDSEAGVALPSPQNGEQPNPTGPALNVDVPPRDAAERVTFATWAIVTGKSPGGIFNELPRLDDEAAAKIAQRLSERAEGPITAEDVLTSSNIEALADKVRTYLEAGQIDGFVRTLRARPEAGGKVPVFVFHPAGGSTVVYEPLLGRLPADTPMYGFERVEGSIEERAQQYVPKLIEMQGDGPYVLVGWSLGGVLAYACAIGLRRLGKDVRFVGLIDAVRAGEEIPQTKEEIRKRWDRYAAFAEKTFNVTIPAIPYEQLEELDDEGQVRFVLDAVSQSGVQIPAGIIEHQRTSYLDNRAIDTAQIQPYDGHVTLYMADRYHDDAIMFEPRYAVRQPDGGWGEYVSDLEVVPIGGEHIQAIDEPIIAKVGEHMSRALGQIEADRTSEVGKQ

| SMILES | IC50 (Histidine--tRNA ligase [2]) | pIC50 (Trypanosoma brucei) | IC50 (Trypanosoma brucei) | IC50 (Leishmania donovani) | other results |
| --- | --- | --- | --- | --- | --- |
| Cn1cc(NC(=O)N2CCC2c2ccccc2)ccc1=O (configuration not stated) | 27.5 µM and 31.2 µM |  |  |  | IC50 (Lysine--tRNA ligase): > 50.1 µM; IC50 [1]: > 100 µM; IC50 (Histidine--tRNA ligase [3]): 7.08 µM and 6.57 µM |
| CCOC1CCN(C(=O)Nc2ccc(=O)n(C)c2)CC1 | 23.9 µM and 23.3 µM |  |  |  | IC50 [1]: > 100 µM; IC50 (Histidine--tRNA ligase [3]): 0.995 µM and 1.6 µM and 2.46 µM and 3.11 µM |
| CCCc1ccc(C(C)Nc2ncnc3c2CCNC3)cc1 (configuration not stated) |  | 4.735 and 4.73 | 20.2 µM | 21.6 µM | pIC50 (Leishmania donovani): 4.733 |
| Cl.Fc1cccc(CN2CCC(c3cc4ncccc4cn3)CC2)c1F | 28.5 µM and 56.4 µM |  |  |  | IC50 [4]: 43.3 µM; pIC50 (Plasmodium falciparum): 6.161; IC50 (Plasmodium falciparum): 0.897 µM |
| Cn1cc(NC(=O)C2CC(c3ccccc3)C2)ccc1=O (configuration not stated) | 8.22 µM |  |  |  | IC50 [1]: > 100 µM; IC50 (Histidine--tRNA ligase [3]): 8.88 µM and 10.5 µM |
| COCCN(CC1CC1)c1nc(CCN)nc2sc(C)c(C)c12 |  | 4.814 and 4.866 | 16.2 µM | > 25.1 µM |  |
| CC(C)N1CCCC(C(=O)N2CCN(c3nsc4ccccc34)CC2)C1 (configuration not stated) |  | 4.562 and 4.572 | 20.3 µM | 30.3 µM | pIC50 (Leishmania donovani): 4.419 |
| Cl.Fc1ccc(F)c(CN2CCC(c3cc4ncccc4cn3)CC2)c1 | 58.4 µM and 43.6 µM |  |  |  | IC50 [5]: 27.2 µM; IC50 [4]: > 100 µM; IC50 [6]: > 50.1 µM; pIC50 (Plasmodium falciparum): 6.54; IC50 (Plasmodium falciparum): 0.505 µM |
| CN1CCN(CC(NCc2cccc(O)c2)c2ccccc2)CC1 (configuration not stated) |  | 5.312 and 5.375 | 4.3 µM | 13.7 µM |  |
| Cc1cccc(CN2CCCCC2c2n[nH]cc2-c2cc(C)no2)c1.Cl (configuration not stated) |  | 4.638 and 4.693 | 19.8 µM |  |  |
| CC(Nc1ncnc2c1CCNC2)c1ccc2c(c1)CCCC2 (configuration not stated) |  | 4.894 and 4.867 | 8.18 µM | 25 µM | pIC50 (Leishmania donovani): 4.725 |
| CCOC(=O)N1CC2(CCNCC2)c2cc(Cl)ccc21.Cl |  | 4.722 and 4.602 | 20.3 µM | 22.3 µM | pIC50 (Leishmania donovani): 4.68 |
| CC(Nc1ncnc2c1CCNC2)c1ccc(C(C)(C)C)cc1 (configuration not stated) |  | 4.656 and 4.706 | 20.6 µM | 19.6 µM | pIC50 (Leishmania donovani): 4.856 |
| COCC(C)NCc1nc(-c2ccc(C)cc2)c(-c2ccccn2)[nH]1 (configuration not stated) |  |  | > 50.1 µM | 16 µM | pIC50 (Leishmania donovani): 4.597 |
| CCNC(=O)[C@@H]1C[C@@H](N)CN1Cc1ccc(Sc2ccc(C)cc2)o1 |  | 5.166 and 5.161 | 6.83 µM | 13.8 µM | pIC50 (Leishmania donovani): 4.875 |
| CC(C)(C)C(=O)NCCc1ccn(-c2ccccc2)n1 |  | 5.66 and 5.649 | 2.22 µM |  |  |
| Cc1nc(C2(O)CCCNCC2)sc1CCOc1ccccc1F.Cl (configuration not stated) |  | 4.648 and 4.682 | 21.9 µM |  |  |
| O=C(NCCc1coc(-c2ccc(F)cc2)n1)NC1CC1 |  | 5.662 and 5.643 | 2.17 µM |  |  |
| Cc1cc(C)n(CC2CCCN2Cc2nc(N)c3ccccc3n2)n1 (configuration not stated) | > 100 µM |  |  |  | IC50 [4]: > 100 µM |
| Cn1cc(NC(=O)N2CCC(NS(C)(=O)=O)CC2)ccc1=O | 52.1 µM and 49.1 µM |  |  |  | IC50 (Lysine--tRNA ligase): > 50.1 µM; IC50 [7]: > 30.2 µM; IC50 [1]: > 100 µM; IC50 (Histidine--tRNA ligase [3]): 2.32 µM and 2.57 µM |
| Cn1cc(NC(=O)N2CCC(OCc3ccccc3)CC2)ccc1=O | 17 µM and 14.8 µM |  |  |  | IC50 [1]: > 100 µM; IC50 (Histidine--tRNA ligase [3]): 11.6 µM and 6.66 µM |
| c1ccc(N2CCOCC3(CCCN(c4nccs4)C3)C2)nc1 (configuration not stated) | > 100 µM |  |  |  | IC50 [8]: > 100 µM |
| CCOC1CCCN(C(=O)NCCc2ccn(-c3ccccc3)n2)C1 (configuration not stated) |  | 6.745 and 6.727 | 0.141 µM |  |  |
| Cc1cc(=O)n(C)cc1NC(=O)Cc1cccc(Cl)c1 | 4.77 µM |  |  |  | IC50 (Lysine--tRNA ligase): > 50.1 µM; IC50 (Histidine--tRNA ligase [3]): 5 µM and 6.56 µM |
| Cc1cc(=O)n(C)cc1NC(=O)Cc1cccc(F)c1 | 6.21 µM |  |  |  | IC50 (Lysine--tRNA ligase): > 50.1 µM; IC50 (Histidine--tRNA ligase [3]): 7.6 µM and 8.67 µM |
| Cc1cnc(N2CCC3(CCN(CC4CC4)C3=O)CC2)nc1 | > 100 µM |  |  |  | IC50 [8]: > 100 µM |
| O=C(NCCc1ccn(-c2ccccc2)n1)N1CCC1 |  | 6.164 and 6.213 | 0.53 µM |  |  |
| CN(C)c1ccc(-c2cc(C(=O)O)cc(S(=O)(=O)NC3CC3)c2)cc1 |  | 5.904 and 6.15 | 0.716 µM |  |  |
| Cn1cc(NC(=O)N2CCC(CN3CCCC3)CC2)ccc1=O | > 100 µM |  |  |  | IC50 [1]: > 100 µM |
| Cn1cc(NC(=O)N2CCC(Cc3ccccc3)CC2)ccc1=O | 3.14 µM and 2.52 µM |  |  |  | IC50 [1]: > 100 µM; IC50 (Histidine--tRNA ligase [3]): 6.79 µM and 5.48 µM |
